Mass density and refractive index data for three compounds are collected here from the NIST ThermoML archive (doi:10.1021/je300633e).

SMILES strings stand for the structures. ± gives the expanded uncertainty stated by the source.

Data set [1] in a line: mn = molality of the nth substance listed, in mol/kg. The note with it: 298.15 K, 101 kPa, Liquid, Vibrating tube method.
A short description of data set [2]: refractive index (Na D-line) (dimensionless); mn = molality of the nth substance listed, in mol/kg. The note with it: 298.15 K, 101 kPa, Liquid, Standard Abbe refractometry.

As a reminder, the mass density is mass per unit of volume. One may read the refractive index as the speed of light in vacuum divided by its phase velocity in the sample. Take `CC(=O)NCCCCCCNC(C)=O` [N,N'-diacetyl-1,6-hexanediamine] + O: the mass density in data set [1] (m1 = 0.1) is on record as 997.981 ± 1.1 kg/m3; in data set [1] (m1 = 0.15) it was 998.443 ± 1.1 kg/m3; in data set [1] (m1 = 0.2) it was 998.931 ± 1.1 kg/m3; in data set [1] (m1 = 0.25), 999.413 ± 1.1 kg/m3; in data set [1] (m1 = 0.3), 999.901 ± 1.1 kg/m3; in data set [1] (m1 = 0.35), 1000.37 ± 1.1 kg/m3. The mass density in data set [1] (m1 = 0.4) is listed as 1000.88 ± 1.1 kg/m3. Besides, the refractive index in data set [2] (m1 = 0.1) worked out at 1.3348 ± 0.0009; in data set [2] (m1 = 0.15), 1.3363 ± 0.0009; in data set [2] (m1 = 0.2), 1.3382 ± 0.0009; in data set [2] (m1 = 0.25), 1.3393 ± 0.0009; in data set [2] (m1 = 0.3), 1.3409 ± 0.0009; in data set [2] (m1 = 0.35), 1.3419 ± 0.0009. Besides, the refractive index in data set [2] (m1 = 0.4) was found to be 1.3431 ± 0.0009.
For `OC[C@@H](O)[C@@H](O)[C@H](O)[C@H](O)CO` [D-mannitol] + O, the mass density in data set [1] (m1 = 0.1) worked out at 1003.27 ± 1 kg/m3; in data set [1] (m1 = 0.2) it was 1009.2 ± 1 kg/m3; in data set [1] (m1 = 0.3), 1015.29 ± 1 kg/m3; in data set [1] (m1 = 0.5) it was 1026.51 ± 1 kg/m3; in data set [1] (m1 = 0.7) it was 1037.43 ± 1 kg/m3; in data set [1] (m1 = 0.9) it was 1047.8 ± 1 kg/m3. In addition, the refractive index in data set [2] (m1 = 0.1) is 1.3349 ± 0.0009; in data set [2] (m1 = 0.2), 1.3367 ± 0.0009; in data set [2] (m1 = 0.3), 1.3398 ± 0.0009; in data set [2] (m1 = 0.5) it was 1.344 ± 0.0009; in data set [2] (m1 = 0.7), 1.349 ± 0.0009; in data set [2] (m1 = 0.9), 1.3532 ± 0.0009.
`OC[C@@H](O)[C@H](O)[C@@H](O)CO` [xylitol] + O: the mass density in data set [1] (m1 = 0.1) is given as 1002 ± 1.1 kg/m3; in data set [1] (m1 = 0.2), 1006.92 ± 1.1 kg/m3; in data set [1] (m1 = 0.3), 1011.76 ± 1.1 kg/m3; in data set [1] (m1 = 0.5) it was 1020.96 ± 1.1 kg/m3; in data set [1] (m1 = 0.7), 1029.87 ± 1.1 kg/m3; in data set [1] (m1 = 0.9) it was 1038.33 ± 1.1 kg/m3. For the same compound, the refractive index is 1.3341 ± 0.0009 in data set [2] (m1 = 0.1); 1.3361 ± 0.0009 in data set [2] (m1 = 0.2); 1.3382 ± 0.0009 in data set [2] (m1 = 0.3); 1.3423 ± 0.0009 in data set [2] (m1 = 0.5); 1.346 ± 0.0009 in data set [2] (m1 = 0.7); 1.3494 ± 0.0009 in data set [2] (m1 = 0.9).
